The values that follow come from patent publication US20050171424A1, “Methods for imaging the lymphatic system using dendrimer-based contrast agents” (The Gov. of the USA as rep. by the Secretary of the Dept. …, priority 2004, published 2005).

One data set has as its system deep lymphatic system. The experiment in a line: Whole-body dynamic 3D-micro-MR lymphangiography of normal mice (Example 2). The data set is classed as in vivo. The conditions noted are these: for Number of Mice in Which the Thoracic Duct was Visualized/Number of Mice Examined: Normal Mice, 0.1 μmolGd intracutaneously into four middle phalanges. On the procedure: (§1) The mice were anesthetized with 1.15 mg sodium pentobarbital (Dainabot, Osaka, Japan) i.p., and then injected intracutaneously with 0.1 μmolGd of PAMAM-G8, DAB-G5, PAMAM-G4, Gadomer-17, or GPDM into four middle phalanges in all four extremities. Dynamic micro-MR images were obtained using a 1.5-Tesla superconductive magnet unit (Signa LX, General Electric Medical System, Milwaukee, Wis.) with a round birdcage type coil of 3 cm diameter fixed by a custom-made coil holder. Four to eight female mice (7 weeks old, 18-21 g body weight) in each group were used and each contrast agent was prepared at least three separate times for these imaging studies. The mice were wrapped with gauze to stabilize their body temperature and were placed at the center of the coils.
(§2) A 3D-fast spoiled gradient echo [3D-fastSPGR (efgre3d package; Signa Horizon, GE); repetition time/echo time 28.5/7.9 msec; inversion time 65 msec; 31.2 kHz, flip angle 30°, four excitations; 40 slice-encoding steps; scan time 7 min 36 seconds] with chemical shift fat-suppression was used 10, 20, 30, and 45 min after injection of the contrast agents. The coronal images were reconstructed with 0.6-mm section thickness at every 0.3-mm. The FOV was 6×3 cm and the size of the matrix was 512×256. The intensities of the regions of interest (ROIs) (for example, a whole axillary lymph node, and the liver) were measured, and then the time-intensity curves analyzed. The data were expressed as the axillary lymph node-to-muscle and the axillary lymph node-to-liver ratios. The slice data were processed into 3D images using the MIP method with the same window and level (window 3500 and level 2300) (Advantage Windows, General Electric Medical System). Two board-certified radiologists separately read a set of stereo views of 3D-MRL for all studies, and estimated the visualization of the thoracic duct. After imaging, the mice were sacrificed by carbon dioxide inhalation.
Statistical analyses were performed using either Student's t-test or a one-way analysis of variance (ANOVA), with a pairwise comparison using the Bonferroni method for signal intensity curves (Statview; SAS Institute Inc., Cary, N.C.).

For data set [1], the system named is lymphatic vessels in Concanavalin A lymphangitis. Kind of data set: 3D-micro-MRL in Concanavalin A lymphangitis model. The data set is classed as in vivo, C57BL6 mice. The conditions noted are these: FIGS. 10, 14A. On the procedure: To generate a lymphangitis model, Concanavalin A ([…]) (Sigma, St. Louis, Mo.) was injected intravenously into C57BL6 mice (NCI, Frederick, Md.) 24 hours before MRI was performed.
The mice were anesthetized with 1.15 mg sodium pentobarbital (Dainabot, Osaka, Japan) i.p., and then injected intracutaneously with 0.1 μmolGd of PAMAM-G8, DAB-G5, PAMAM-G4, Gadomer-17, or GPDM into four middle phalanges in all four extremities. Dynamic micro-MR images were obtained using a 1.5-Tesla superconductive magnet unit (Signa LX, General Electric Medical System, Milwaukee, Wis.) with a round birdcage type coil of 3 cm diameter fixed by a custom-made coil holder. […]
A 3D-fast spoiled gradient echo [3D-fastSPGR (efgre3d package; Signa Horizon, GE); repetition time/echo time 28.5/7.9 msec; inversion time 65 msec; 31.2 kHz, flip angle 30°, four excitations; 40 slice-encoding steps; scan time 7 min 36 seconds] with chemical shift fat-suppression was used 10, 20, 30, and 45 min after injection of the contrast agents. […] The intensities of the regions of interest (ROIs) (for example, a whole axillary lymph node, and the liver) were measured, and then the time-intensity curves analyzed. The data were expressed as the axillary lymph node-to-muscle and the axillary lymph node-to-liver ratios. […]

The subject of data set [2] is lymph nodes and lymphatic vessels of IL-15 transgenic mice. The experiment in a line: 3D-micro-MRL in IL-15 transgenic lymphoproliferative/neoplastic disease model. The data set is classed as in vivo. The conditions noted are these: 45 minutes after injection. On the procedure: Eight- to 10-month old IL-15 transgenic mice (on a C57BL6 background) were used as a chronic lymphoproliferative/neoplastic disease model because they manifested selective expansion of NK, CD8^+NK-T, γδIELs, and CD8 T cells in the periphery. Most of the lymph nodes collected from an aged IL-15 transgenic mouse were enlarged in size. The lesion of proliferated monoclonal lymphocytes often involved the lung and the subcutaneous lymphatic tissue.
as §1
(§3) A 3D-fast spoiled gradient echo [3D-fastSPGR (efgre3d package; Signa Horizon, GE); repetition time/echo time 28.5/7.9 msec; inversion time 65 msec; 31.2 kHz, flip angle 30°, four excitations; 40 slice-encoding steps; scan time 7 min 36 seconds] with chemical shift fat-suppression was used 10, 20, 30, and 45 min after injection of the contrast agents. The coronal images were reconstructed with 0.6-mm section thickness at every 0.3-mm. […] The intensities of the regions of interest (ROIs) (for example, a whole axillary lymph node, and the liver) were measured, and then the time-intensity curves analyzed. The data were expressed as the axillary lymph node-to-muscle and the axillary lymph node-to-liver ratios. […] Two board-certified radiologists separately read a set of stereo views of 3D-MRL for all studies, and estimated the visualization of the thoracic duct. […]

The test system of data set [3] is lymph nodes infiltrated with MC-38 colorectal cancer cells. Kind of data set: 3D-MRL in MC38 colorectal cancer lymph node metastasis model. The data set is classed as in vivo, C57BL6 mice. The procedure: In addition, 10-week-old C57BL6 mice (NCI, Frederick, Md.) bearing lymph node metastases of MC38 colorectal cancer cells following either intravenous or subcutaneous injection were used as a mouse model manifesting lymph node metastasis.
The mice were anesthetized with 1.15 mg sodium pentobarbital (Dainabot, Osaka, Japan) i.p., and then injected intracutaneously with 0.1 μmolGd of PAMAM-G8, DAB-G5, PAMAM-G4, Gadomer-17, or GPDM into four middle phalanges in all four extremities. […]
as §3, with “agents.” for “agents. The coronal images were reconstructed with 0.6-mm section thickness at every 0.3-mm.”

Data set [4] concerns deep lymph nodes, thoracic duct and lymphatic vessels. The experiment in a line: Whole-body 3D-micro-MR lymphangiography of normal mice, PAMAM-G8 versus GPDM (Example 3). The data set is classed as in vivo. The procedure:
as §1, §2
(§4) In this example, the PAMAM-G8 contrast agent is compared to GPDM. PAMAM-G8 was prepared as described in Example 2, and GPDM was purchased (Schering AG, Berlin, Germany). Animal models, administration of the contrast agents, and 3D-micro-MRL were as described in Example 2.

The test system of data set [5] is external iliac lymph nodes in infection model. The experiment in a line: 3D-micro-MRL of nude mice with spontaneous oral ulcers and urinary tract infections. The data set is classed as in vivo. The conditions noted are these: 45 minutes after injection, FIG. 16B. The procedure:
as §4
Nude mice that develop spontaneous oral ulcers and urinary tract infections also were examined.

Data set [6] can be described thus: Distribution and survival properties of the dendrimer conjugates. The conditions noted are these: in vivo.

Entries after “also recorded” stand apart in the source; their conditions may differ.

As to “PAMAM-G7D-(Gd-1B4M)1024 dendrimer conjugate [PAMAM-G8]”, the “Number of Mice in Which the Thoracic Duct was Visualized/Number of Mice Examined” value in the data set on deep lymphatic system (10 min), in the data set with deep lymphatic system (20 min), in the data set with deep lymphatic system (30 min) and with deep lymphatic system (45 min) was 10/10 in each case. Besides, the “Axillary lymph node-to-background (muscle) signal intensity ratio, comparison between agents” value in the data set with deep lymphatic system (T1-weighted signal, all time points examined, P<0.01, FIG. 9A) is “significantly higher than that measured with Gadomer-17 and GPDM”. In addition, the “Axillary lymph node-to-liver signal intensity ratio, comparison between agents” value in the data set with deep lymphatic system (all time points examined, P<0.01, FIG. 9B) is given as “nearly equivalent, but were significantly higher than that measured with GPDM”. In the data set with deep lymphatic system (normal mice), the “Visualization of the lymphatic vessels, comparison between agents” value is “better visualized with PAMAM-G8 compared to all other agents examined”. Also, in the data set with deep lymphatic system (normal mice, 10 to 45 min after intracutaneous injection, FIGS. 7, 8), the “Visualization of the deep lymph nodes” value was “enabled most of the deep lymph nodes to be visualized”. For the same substance, the “Visualization by a radiologist of the thoracic duct” value with deep lymphatic system (normal mice, all times after administration) was “in all mice at all times after administration”. In data set [1], the “Detection of dilation of the lymphatic vessels” value was “demonstrated the remarkable dilation of the lymphatic vessels throughout the body, especially in the liver; also recorded: able to detect remarkable dilation of lymphatic vessels”. Also, in data set [2] (FIG. 11), the “Visualization of dilation of lymphatic vessels” value is given as “best visualized with PAMAM-G8”. Moreover, the “Lymph node findings on 3D-micro-MRL” value in data set [2] (FIGS. 11, 15A) was “considerable multiple lymph node swellings with central filling defects; also recorded: enlargement and a lack of enhancement within several of the lymph nodes”. For the same substance, the “Findings on 3D-MRL in mouse with lymph node metastasis” value in data set [3] (45 minutes after injection, FIG. 12 left image) was “dilated lymphatic vessels surrounding the tumor and a collateral lymphatic vessel”. Besides, the “Findings on 3D-MRL in mice with subcutaneously xenografted MC-38 tumor” value in data set [3] (FIG. 12 right image) is on record as “did not show any abnormalities in either the lymph nodes or the lymphatic vessels”. The “Visualization of other lymphatic vessels” value in data set [4] is listed as “better visualized with PAMAM-G8 than with GPDM”. The “Visualization of deep lymph nodes throughout the body” value in data set [4] (intracutaneous injection, 0.05 mmolGd/kg (FIG. 13)) was “most deep lymph nodes throughout the body were visualized”. Further, the “Visualization of the thoracic duct” value in data set [4] (intracutaneous injection, FIG. 13) is listed as “visualized in all six mice”. Besides, the “Lymph node findings in infection model” value in data set [5] was “irregular dilation of the lymphatic vessels in the lymph nodes”. Besides, the “Distribution within the lymphatic system” value in data set [6] was “lymphotropic behavior (accumulation in the lymph system) and minimal leakage out of the lymphatic vessels”.
